The text below walks through data of publication PMC8597046, “Use of Mixture Dosing and Nonlinear Mixed Effect Modeling of Eight Environmental Contaminants in Rabbits to Improve Extrapolation Value of Toxicokinetic Data” (Environmental Health Perspectives, 2021).

A short description of data set [1]: TK assay, intravenous mixture dosing: serum concentrations and noncompartmental analysis (sparse data). The conditions noted are these: IV mixture dosing, NCA, n=12. The method, then:
(§1) The experiment was carried out on thirty 10-wk old female New Zealand white rabbits (INRA 1777 line) weighing 2.37±0.14kg . […] Blood samples were taken at the designated time points post IV and oral administration: 15 min, 30 min, 1 h, 2 h, 4 h, 8 h, 12 h, 24 h, 3 d, 7 d, and 28 d from groups of 3 or 6 rabbits at each sampling time. Each rabbit was sampled 3 times and 3 rabbits were sampled at each sampling time, except at 30 min post administration, when 6 samples were collected to provide a sufficient blood volume for assaying the compounds. The doses and assay time points were selected to allow the calculation of TK parameters (Table 1) based on preliminary TK data. Residual concentrations of the compounds, and their possible evolution over time, were determined by sampling six entirely untreated rabbits during the TK study on the day of drug administrations, then 14 d and 28 d later.
(§2) The volume administered was adjusted to the animal’s body weight (BW) recorded the day before.
(§3) Intravenous administrations were performed via an indwelling catheter (22G Terumo, 0.9×25mm ) just after its insertion into an ear vein. […] For oral administrations, the mixture of all compounds ( 4mL/kg ) was deposited directly in the mouth of rabbits using a catheter (22G BD Insyte 22G, 0.9×25mm ). Prior to the study, the rabbits had been trained to gradually swallow water and then corn oil.
(§4) Blood samples were collected from the auricular artery using a 20 G needle ( 0.9×25mm ) and a dry tube. The first two blood samples were 8–10mL in volume, whereas a large volume (about 20mL ) was obtained antemortem immediately after electrical stunning (95LX rabbit stunner; Burdis), followed by exsanguination.
(§5) Serum concentration-time profiles of the different compounds were first analyzed using a noncompartmental approach (NCA) involving a sparse data option. Sparse data methodology consists of calculating TK parameters based on the mean profile of all the subjects in the dataset and is appropriate when a rich data series cannot be obtained, as in the present experiment ([FDA 1999]). The area under the concentration time curve ( AUC0−tlast ) and the area under the first moment curve ( AUMC0−tlast ) from dosing time ( t=0 ) to the time of the last measurable concentration were calculated using the linear trapezoidal rule after IV and oral dosing. The area under the serum concentration time curve from dosing time to infinity ( AUC0−inf ) was obtained by adding to AUC0−tlast the area extrapolated from the time of the last measurable concentration to infinity by dividing the last quantifiable serum concentration by the slope of the terminal phase ( λZ ), as estimated by linear regression using the best fit option of Phoenix®.
(§6) The clearance (CL) and apparent clearance (CL_F) were respectively estimated after IV and oral administrations by dividing the administered dose by the AUC0−inf calculated for each analyte.
(§7) The terminal half-life (HL) was estimated with Equation 1: (1) HL=0.69315/λZ where λz is the slope of the terminal phase.
The mean residence time (MRT) was estimated using Equation 3: (3) MRT=AUMCiv0−tlast /AUCiv0−tlast , where AUCMiv0−tlast and AUCiv0−tlast are the values of AUMC0−tlast and AUC0−tlast obtained after IV dosing.
The steady-state volume of distribution ( VSS ) was estimated using Equation 4: (4) VSS=CL×MRT, with CL and MRT as defined above.

Data set [2] is described as follows: TK assay, oral mixture dosing: serum concentrations and noncompartmental analysis (sparse data). The conditions noted are these: oral mixture dosing, NCA, n=12. The protocol: as §1, §2, §3, §4, §5, §6, §7
The oral bioavailability (F) was estimated using Equation 2: (2) F=AUCvo0−tlast×Doseiv/AUCiv0−tlast×Dosevo, where AUCiv0−tlast and AUCvo0-tlast are the values of AUC0−tlast obtained after IV and oral dosing, respectively, and Doseiv and Dosevo are the IV and oral doses.

Data set [3] in a line: Estimation of loading and daily maintenance doses and NLME model simulations. Set-up: species or system female rabbits. The conditions noted are these: oral; for Computed maintenance dose: daily; for Computed maintenance dose / Computed loading dose: scaled to the targeted CSS of Table 6. The protocol:
The ultimate goal of this TK investigation was to compute a dosage regimen that allowed targeted steady-state serum concentrations to be attained rapidly for a planned TK/TD trial on the reprotoxic effect of a mixture of environmental contaminants in female rabbits. […] With that in mind, the loading and the daily maintenance doses of each compound were evaluated using Equations 12 and 13, respectively.
This risk was also the reason why the NLME model was employed to simulate the time development of the amounts of compounds in the central and peripheral compartments following administration of the daily maintenance dose of each compound over the same duration.
The loading and maintenance doses computed to ensure a nominal CSS of 1 ng/mL were scaled to determine the doses to be administrated by oral route to female rabbits to maintain the targeted CSS .

For data set [4] the following is noted: rodents; ref Chang et al. 2012; cited from earlier work.
Data set [5] can be described thus: Chronic exposure: daily oral mixture for 17 wk, steady-state serum concentrations. The conditions noted are these: serum, mean±SD, n=16, after 17 weeks of oral mixture; MEHP after DEHP dosing. The method, then:
The objective of this preliminary experiment was to check the ability of our approach to determine the loading and maintenance doses of the eight compounds to be administered simultaneously by oral route to reproduce in female rabbits targeted serum concentrations. The experiment was carried out on thirty-two 2-wk old female New Zealand white rabbits (INRA 1777 line) randomly allocated to a treatment and control groups of 16 rabbits weighing 309±45g and 298±62g , respectively. The treated rabbits were orally administrated a mixture of the eight compounds at a dosage corresponding to the sum of the loading and daily maintenance doses followed by daily administrations of the maintenance dose for 17 wk (see the “Estimation of the doses” section). The control group was orally administrated the vehicle for the same duration.
The volume of the maintenance dosing solution ( 1mL/kg ) was weekly adjusted to the mean BW estimated from the known pattern of growth of the INRA 1777 rabbit line. Oral dosing and antemortem blood sampling were performed as previously described.
Blood samples were left to clot for about 20–30 min at ambient temperature and centrifuged for 20 min at 3,000×g at 25°C. The separated serum was stored in glass tubes at −20°C until assayed.

A short description of data set [6]: Nonlinear mixed effect (NLME) compartmental modeling of merged IV and oral serum concentrations. An excerpt:
A nonlinear mixed effect (NLME) modeling approach was used to analyze simultaneously all data obtained from the different rabbits after both IV and oral administrations and to provide robust estimates of the typical TK parameters.
The primary parameters of the model, namely the volume of distribution of the central compartment (V1), the first-order rate constants ( K10 , K12 , K21 , and Kabs plus K13 , K31 for PFOA) and the bioavailability (F) and their associated precisions [standard error (SE)] were estimated by minimizing an objective function value (OFV) expressed as minus twice the log of the likelihood estimation ( −2LL ). […] Marginal likelihood was approximated by using the Laplacian engine by default and, when this engine was unable to determine the SE of the estimate, the Quasi-Random Parametric Expectation Maximization (QRPEM) was selected.
Between subject variability (BSV) of the parameters was measured using the exponential model θparameter_i=θtv_parameter×exp (ηi), where θparameter_i is the parameter estimated for the ith individual, θtv_parameter is the typical population value of the parameter, and ηi is the deviation associated with the ith individual from the corresponding value of the parameter at the population level.
The distribution of ηi was assumed to be normal with a mean of 0 and a variance ω² . BSV was reported as a coefficient of variation (CV) in the original scale CV(%)=100× exp (ω^2)−1 .
The residual variance was modeled using a combined additive and proportional error model Cobsij=Cpredij(1 + ε1ij) + ε2ij, where Cobsij and Cpredij are respectively the jth observed and predicted concentrations for the ith individual, and ε1ij and ε2ij are the multiplicative and additive residual errors.
Secondary parameters were calculated from the population primary parameters.
The clearance values (CL) were estimated using Equation 5: (5) CL=K10×V1, where V1 is the volume of the central compartment and K10 is the elimination rate constant from the central compartment.
The volume of the peripheral compartment (V2) was estimated with Equation 6: (6) V2=V1×(K12/K21), where K12 and K21 are the distribution rate constants between the central and the peripheral compartments.
The clearance of distribution (Q) was estimated using Equation 7: (7) Q=K12×V1, with […] and K12 as defined above.
The volume of distribution associated with the terminal phase was estimated with Equation 10: (10) VZ=CL/λZ, with λZ as defined above.
The AUC was computed as a secondary parameter using Equation 11: (11) AUC=Dose/CL.
The terminal half-life was estimated with Equation 1, as previously described.

For `O=C(O)[C@H]1O[C@@H](Oc2ccc(S(=O)(=O)c3ccc(O)cc3)cc2)[C@H](O)[C@@H](O)[C@@H]1O` [BPSG, bisphenol S glucuronide], the MRT turned out to be 3.16 h in data set [1] and 7.66 h in data set [2] (MEHP after oral DEHP). The “AUC0−inf” value in data set [1] (serum) turned out to be 5.18 µM·h; in data set [2] (serum, MEHP after oral DEHP) it was 15.8 µM·h. Moreover, the highest concentration (Cmax) is 5.78 µM in data set [1] (serum, doses in Table 2 r3, BPSG after BPS dosing) and 6.91 µM in data set [2] (serum, doses in Table 3 r3, MEHP measured after oral DEHP, BPSG after BPS). The half-life in data set [1] (terminal) is 3.80 h; in data set [2] (terminal, MEHP after oral DEHP), 4.23 h. In addition, the Tmax in data set [2] (MEHP after oral DEHP) worked out at 0.27 h.
For the molecule `CCCCC(CC)COC(=O)c1ccccc1C(=O)OCC(CC)CCCC` (stereo not shown) [DEHP, di(2-ethylhexyl)phthalate], in data set [3], the Computed maintenance dose was 0.78 mg/kg and the Computed loading dose is 0.264 mg/kg. Also, in data set [3] (to maintain serum concentration of 1 ng/mL, daily CL×Css/F, DEHP dose for MEHP in serum), the Daily maintenance dose is 0.013 mg/kg. Further, in data set [3] (to rapidly attain serum concentration of 1 ng/mL, Vss×Css/F, DEHP dose for MEHP in serum), the Loading dose is 0.0044 mg/kg.
As to `O=S(=O)(O)C(F)(F)C(F)(F)C(F)(F)C(F)(F)C(F)(F)C(F)(F)C(F)(F)C(F)(F)F` [PFOS, perfluorooctane sulfonate], in data set [4], the Intestinal absorption is given as 117%. Also, in data set [3], the Computed maintenance dose was 0.0013 mg/kg and the Computed loading dose is 0.06 mg/kg. Also, the “Observed CSS” value in data set [5] was determined as 154 ± 25 ng/mL. The “Oral bioavailability (F)” value in data set [6] (NLME model) was 100%. The Clearance result in data set [6] (population secondary parameter, mean) is on record as “lower than 0.01 L/kg/h”.
